From patent US20120015907A1, “Furopyridine compounds and uses thereof” (NOVARTIS AG, priority 2010, published 2012)

Legend:
HCV polymerase = biological target: T1, HCV polymerase (Hepatitis C virus genotype 1b, UniProt Q9WMX2); assay: biochemical; conditions: polymerase assay of Biological Example 1; read-out: NS5B polymerase IC50
T1 construct: (His)6 (C)

[1] = test system: HCV replicon I389luc-ubi-neo/NS3-3'/ET in ET (Huh-lucubineo-ET) cells; assay: Replicon assay (Biological Example 2), luciferase read-out; format: cell-based; conditions: Hepatitis C virus, luciferase activity 48 hours after compound addition
Method: A cell line, ET (Huh-lucubineo-ET) is used for screening of compounds for inhibiting HCV RNA dependent RNA polymerase. The ET cell line is stably transfected with RNA transcripts harboring a I389luc-ubi-neo/NS3-3′/ET; replicon with firefly luciferase-ubiquitin-neomycin phosphotransferase fusion protein and EMCV-IRES driven NS3-5B polyprotein containing the cell culture adaptive mutations (E1202G; […]; K1846T) (Krieger at al, 2001 and unpublished). The ET cells are grown in DMEM (Dulbeco's Modified Eagle's Medium), supplemented with 10% fetal calf serum, 2 mM Glutamine, Penicillin (100 IU/mL)/Streptomycin (100 μg/mL), 1× nonessential amino acids, and 250 μg/mL G418 (“Geneticin”). Reagents are all available through Life Technologies (Bethesda, Md.). The cells are plated at 0.5-1.0×10^4 cells/well in the 96 well plates and incubated for 24 hrs before adding test compound. The compounds are added to the cells to achieve a final concentration of 0.1 nM to 50 μM and a final DMSO (dimethylsulfoxide) concentration of 0.5%. Luciferase activity is measured 48 hours later by adding a lysis buffer and the substrate (Catalog number Glo-lysis buffer E2661 and Bright-Glo luciferase system E2620 Promega, Madison, Wis.). Cells should not be too confluent during the assay. Percent inhibition of replication data is plotted relative to no compound control. To determine the EC50 (effective concentration at which 50% of the maximum inhibition is observed), a 10 point, 3-fold serial dilution for each compound is used, which spans a concentration range of 1000 fold. EC50 values were calculated by fitting % inhibition at each concentration to the following equation:
% inhibition=100%/[(EC50/[I])^b+1]
where b is Hill's coefficient.

Row | SMILES | IC50 (HCV polymerase) [nM] | IC50 [1] [nM]
1 | CCc1cc2c(C(=O)NC)c(-c3ccc(F)cc3)oc2nc1N(CCCCN1CCC[C@H]1C(=O)O)S(C)(=O)=O [Example 23.98, (S)-1-(4-(N-(5-ethyl-2-(4-fluorophenyl)-3-(methylcarbamoyl)furo[2,3-b]pyridin-6-yl)methylsulfonamido)butyl) pyrrolidine-2-carboxylic acid] | 166 | ≥ 5000
2 | CNC(=O)c1c(-c2ccc(F)cc2)oc2nc(N(C)S(C)(=O)=O)c(C(C)(O)CO)cc12 (stereo not drawn) [Example 9, 5-(1,2-dihydroxypropan-2-yl)-2-(4-fluorophenyl)-N-methyl-6-(N-methylmethylsulfonamido)furo[2,3-b]pyridine-3-carboxamide] | 2320 | ≥ 5000
3 | CNC(=O)c1c(-c2ccc(F)cc2)oc2nc(N(C)S(C)(=O)=O)c(CCCCC(=O)N3CCC[C@H]3C(=O)O)cc12 [Example 4.7, (S)-1-(5-(2-(4-fluorophenyl)-3-(methylcarbamoyl)-6-(N-methylmethylsulfonamido)furo[2,3-b]pyridin-5-yl)pentanoyl)pyrrolidine-2-carboxylic acid] | 51 | ≥ 5000
4 | CNC(=O)c1c(-c2ccc(F)cc2)oc2nc(N(CCCC3CCCS3(=O)=O)S(C)(=O)=O)c(I)cc12 (stereo not drawn) [Example 18.97, 6-{[3-(1,1-Dioxo-tetrahydrothiophen-2-yl)-propyl]-methanesulfonyl-amino}-2-(4-fluoro-phenyl)-5-iodo-furo[2,3-b]pyridine-3-carboxylic acid methylamide] | 32 | ≤ 100
5 | CNC(=O)c1c(-c2ccc(F)cc2)oc2nc(N(C)S(C)(=O)=O)c(CCCCS(=O)(=O)CCC(=O)O)cc12 [Example 4.91, 3-(4-(2-(4-fluorophenyl)-3-(methylcarbamoyl)-6-(N-methylmethylsulfonamido)furo[2,3-b]pyridin-5-yl)butylsulfonyl)propanoic acid] | 10 | ≥ 5000
6 | CNC(=O)c1c(-c2ccc(F)cc2)oc2nc(N(CCCCS(C)(=O)=O)S(C)(=O)=O)c(C3CC3)cc12 [Example 25.7, 5-cyclopropyl-2-(4-fluorophenyl)-N-methyl-6-(N-(4-(methylsulfonyl)butyl)methylsulfonamido)furo[2,3-b]pyridine-3-carboxamide] | 1 | ≤ 100
7 | CCc1cc2c(C(=O)NC)c(-c3ccc(F)cc3)oc2nc1N(CCCS(=O)(=O)c1ccccc1)S(C)(=O)=O [Example 21.97, 5-ethyl-2-(4-fluorophenyl)-N-methyl-6-(N-(3-(phenylsulfonyl)propyl)methylsulfonamido)furo[2,3-b]pyridine-3-carboxamide] | 3 | ≤ 100
8 | CNC(=O)c1c(-c2ccc(F)cc2)oc2nc3c(cc12)CCCCCCN3S(C)(=O)=O [Example 36.4, 2-(4-Fluoro-phenyl)-11-methanesulfonyl-6,7,8,9,10,11-hexahydro-5H-1-oxa-11,12-diaza-cyclonona[f]indene-3-carboxylic acid methylamide] | 5 | ≤ 100
9 | C=Cc1cc2c(C(=O)NC)c(-c3ccc(F)cc3)oc2nc1N(CCCC(=O)OC)S(C)(=O)=O [Example 24.2, methyl 4-(N-(2-(4-fluorophenyl)-3-(methylcarbamoyl)-5-vinylfuro[2,3-b]pyridin-6-yl)methylsulfonamido) butanoate] | 42 | ≤ 100
10 | CCc1cc2c(C(=O)NC)c(-c3ccc(F)cc3)oc2nc1N(CCCC(C)=O)S(C)(=O)=O [Example 22.95, 5-ethyl-2-(4-fluorophenyl)-N-methyl-6-(N-(4-oxopentyl)methylsulfonamido)furo[2,3-b]pyridine-3-carboxamide] | 40 | ≤ 100
11 | CNC(=O)c1c(-c2ccc(Cl)cc2F)oc2nc(N(C)S(C)(=O)=O)c(I)cc12 [Example 2.95, 2-(4-chloro-2-fluorophenyl)-5-iodo-N-methyl-6-(N-methylmethylsulfonamido)furo[2,3-b]pyridine-3-carboxamide] | 8 | ≤ 100
12 | CNC(=O)c1c(-c2ccc(C)cc2)oc2nc(N(CCCCC(=O)O)S(C)(=O)=O)c(C3CC3)cc12 [Example 25.1, 5-(N-(5-cyclopropyl-3-(methylcarbamoyl)-2-p-tolylfuro[2,3-b]pyridin-6-yl)methylsulfonamido)pentanoic acid] | 2 | ≤ 100
13 | CCc1ccc(-c2oc3nc(N(C)S(C)(=O)=O)c(C4CC4)cc3c2C(=O)NC)cc1 [Example 2.94, 5-cyclopropyl-2-(4-ethylphenyl)-N-methyl-6-(N-methylmethylsulfonamido)furo[2,3-b]pyridine-3-carboxamide] | 3 | ≤ 100
14 | CNC(=O)c1c(-c2ccc(C)cc2)oc2nc(N(CCCCCC(=O)O)S(C)(=O)=O)c(C3CC3)cc12 [Example 27.9, 6-(N-(5-cyclopropyl-3-(methylcarbamoyl)-2-p-tolylfuro[2,3-b]pyridin-6-yl)methylsulfonamido) hexanoic acid] | 2 | ≤ 100
15 | CCc1cc2c(C(=O)NC)c(-c3ccc(F)cc3)oc2nc1N(CCCC1C(=O)CCS1(=O)=O)S(C)(=O)=O (stereo not drawn) [Example 23.99, 5-Ethyl-2-(4-fluoro-phenyl)-6-{methanesulfonyl-[3-(1,1,3-trioxo-tetrahydrothiophen-2-yl)-propyl]-amino}-furo[2,3-b]pyridine-3-carboxylic acid methylamide] | 26 | ≤ 100
16 | CNC(=O)c1c(-c2ccc(Oc3ccccc3)cc2)oc2nc(N(CCCC(C)(C)C(=O)O)S(C)(=O)=O)c(C3CC3)cc12 [Example 27.4, 5-(N-(5-cyclopropyl-3-(methylcarbamoyl)-2-(4-phenoxyphenyl)furo[2,3-b]pyridin-6-yl)methylsulfonamido)-2,2-dimethylpentanoic acid] | 1 | ≤ 100
17 | CNC(=O)c1c(-c2ccc(Cl)cc2)oc2nc(N(CCC[C@@H]3CCCS3(=O)=O)S(C)(=O)=O)c(C3CC3)cc12 [Example 24.8, 2-(4-Chloro-phenyl)-5-cyclopropyl-6-{[3-((R)-1,1-dioxo-tetrahydrothiophen-2-yl)-propyl]-methanesulfonyl-amino}-furo[2,3-b]pyridine-3-carboxylic acid methylamide] | 1 | ≤ 100
18 | CNC(=O)c1c(-c2ccc(Cl)cc2)oc2nc(N(CCCS(C)(=O)=O)S(C)(=O)=O)c(C3CC3)cc12 [Example 25.5, 2-(4-chlorophenyl)-5-cyclopropyl-N-methyl-6-(N-(3-(methylsulfonyl)propyl)methylsuIfonamido)furo[2,3-b]pyridine-3-carboxamide] | 1 | ≤ 100
19 | CNC(=O)c1c(-c2ccc(F)cc2)oc2nc(N(CCCC(C)O)S(C)(=O)=O)c(C3CC3)cc12 (stereo not drawn) [Example 26.4, 5-cyclopropyl-2-(4-fluorophenyl)-6-(N-(4-hydroxypentyl)methylsulfonamido)-N-methylfuro[2,3-b]pyridine-3-carboxamide] | 5 | ≤ 100
20 | CNC(=O)c1c(-c2ccc(Oc3ccccc3)cc2)oc2nc(N(CCCCC(=O)O)S(C)(=O)=O)c(C3CC3)cc12 [Example 27, 5-(N-(5-cyclopropyl-3-(methylcarbamoyl)-2-(4-phenoxyphenyl)furo[2,3-b]pyridin-6-yl)methylsulfonamido) pentanoic acid] | 1 | ≤ 100
21 | CNC(=O)c1c(-c2ccc(C3CC3)cc2F)oc2nc(N(C)S(C)(=O)=O)c(C3CC3)cc12 [Example 2.98, 5-cyclopropyl-2-(4-cyclopropyl-2-fluorophenyl)-N-methyl-6-(N-methylmethylsulfonamido)furo[2,3-b]pyridine-3-carboxamide] | 5 | ≤ 100
22 | C=Cc1cc2c(C(=O)NC)c(-c3ccc(F)cc3)oc2nc1N(C)S(C)(=O)=O [Example 2.1, 2-(4-fluorophenyl)-N-methyl-6-(N-methylmethylsulfonamido)-5-vinylfuro[2,3-b]pyridine-3-carboxamide] | 12 | ≤ 100
23 | CCOC(=O)CCCCN(c1nc2oc(-c3ccc(Cl)cc3)c(C(=O)NC)c2cc1C1CC1)S(C)(=O)=O [Example 26.3, ethyl 5-(N-(2-(4-chlorophenyl)-5-cyclopropyl-3-(methylcarbamoyl)furo[2,3-b]pyridin-6-yl)methylsulfonamido) pentanoate] | 3 | ≤ 100
24 | C=CCCN(CCCN(c1nc2oc(-c3ccc(F)cc3)c(C(=O)NC)c2cc1I)S(C)(=O)=O)S(C)(=O)=O [Example 23.994, 6-(N-(3-(N-(but-3-enyl)methylsulfonamido)propyl)methylsulfonamido)-2-(4-fluorophenyl)-5-iodo-N-methylfuro[2,3-b]pyridine-3-carboxamide] | 57 | ≤ 100
